This is an account of results in patent US4086239A, “Thiazole bis-phosphates and phosphonates, intermediates, and insecticidal compositions and methods” (priority 1977, dated 1978).

Assay type in all cases: in vivo
In data set [1] the test system is Lygus bug [Lygus hesperus (Knight)]. Description: Lygus bug spray insecticide evaluation. To be noted: % by weight in acetone-water spray; adults; mortality after 48 hours. The method, then: C. Lygus bus [Lygus hesperus (Knight)]
The test compound is dissolved in a 50-50 acetone-water solution. Two cubic centimeters of the solution are sprayed through a DeVilbiss-type EGA hand spray gun into a circular cardboard cage covered on the bottom with cellophane and the top with tulle netting, containing one string bean pod and 10 adult lygus bugs. Percent mortality is recorded after 48 hours. The primary screening level for this test is 0.5% by weight of the test compound in the acetone-water solution.
(§1) For a particular insect, each compound was initially tested at the primary screening level. For the two-spotted mite, the testing stopped at this point. Those compounds showing less than 50% kill are represented in the table by the primary screening level preceded by a "greater than" sign. For those showing more than 50% kill, a "less than" sign is used. For all other insects those compounds showing greater than 50% kill at the primary screening level were then tested at successively lower levels, until the level was found at which approximately 50% kill was achieved. This level is listed as the LD50 (50% lethal dose) value in Table III. For those compounds showing approximately 50% kill at the primary screening level, the primary screening level itself is listed as the LD50.
(§2) In cases where this level was found, the level is reported as the LD50. When the level of 50% kill was not found, the number listed is the highest concentration tested, whether primary screen or higher, preceded by a "greater than" sign to indicate that a higher level than reported must be used to achieve 50% kill.

Data set [2] has as its system Tobacco Budworm [Heliotis virescens (F.)]. Description: Tobacco budworm leaf dip test. As to conditions: % by weight in solution, larvae, 48 hours plus 5 days if survivors. Here is the method: (§3) A test solution is prepared by dissolving the test compound in a 50-50 acetone-water solution. A section of a curly dock (Rumex crispus) leaf, aproximately 2.5 centimeters wide and 4 centimeters long, is immersed in the test solution for 2-3 seconds, then placed on a wire screen to dry. The dried leaf is placed in a petri dish containing a moistened piece of filter paper, and infested with 5 second-instar salt-marsh caterpillar larvae. Mortality of the larvae is recorded 48 hours later. If surviving larvae are still present, a piece of synthetic media is added to the dish and the larvae are observed for an additional 5 days in order to detect delayed effects of the test compound. The primary screening level for this test is 0.05% by weight of the test compound in the solution.
I. Tobacco Budworm [Heliotis virescens (F.)]
Larvae of the tobacco budworm are used in this test in a procedure identical to that used for salt-marsh caterpillar larvae, except that a Romaine lettace (Latua sativa) leaf section of approximately the same size as the curly dock leaf section is used in place of the latter. The primary screening level for this test is 0.1% by weight of the test compound in the solution.
as §1
In cases where this level was found, the level is reported as the LD50. […]

Data set [3] has as its system Southern House Mosquito [Culex pipiens quinquefasciatus (Say)]. Description: Southern house mosquito larvae test. To be noted: ppm by weight in aqueous solution, third-instar larvae, mortality after 48 hours. The method, then: K. Southern House Mosquito [Culex pipiens quinquefasciatus (Say)]
Insecticidal activity is determined using third-instar larvae of the mosquito (Culex pipiens quinquefasciatus). Ten larvae are placed in a 6-ounce, number 67 Dixie wax paper cup containing 100 milliliters of an aqueous solution of the test chemical. The treated larvae are stored at 70° F, and 48 hours later the mortality is recorded. The primary screening level for this test is 1 ppm by weight of the test compound in the solution.
as §1, §2

Data set [4] deals with Black Bean Aphid [Aphis fabae (Scop.)]. Briefly: Systemic assay on black bean aphid. To be noted: ppm by weight in soil, mortality after seven days. Here is the method: F. Systemic Assay on Black Bean Aphid [Aphis fabae (Scop.)]
The test chemical is diluted in acetone and an aliquot is thoroughly mixed into 500 grams of dry, sandy loam soil. The treated soil is placed in a pint ice cream carton and a nasturtium plant (Tropaeolum sp.) approximately 5 cm tall is transplanted into the carton. The plant is then infested with approximately 25 black bean aphids of mixed ages and placed in the greenhouse. Seven days later mortality is recorded. The primary screening level for this test is 10 ppm by weight of the test compound in the soil.
as §1, §2

The subject of data set [5] is German Cockroach [Blatella germanica (Linne)]. Description: German cockroach spray insecticide evaluation. To be noted: % by weight in acetone-water spray; nymphs; mortality after 7 days. Here is the method: B. German Cockroach [Blatella germanica (Linne)]
The test compound is diluted in a 50-50 acetone-water solution. Two milliliters of the solution are sprayed through a DeVilbiss type EGA hand spray gun into a circular cardboard cage contaning 10 1-month-old German Cockroach nymphs. The test cage is covered on the bottom with cellophane and the top with tulle netting. Percent mortality is recorded after 7 days. The primary screening level for this test is 0.1% by weight of the test compound in the acetone-water solution.
as §1, §2

The subject of data set [6] is Salt-marsh Caterpillar [Estigmene acrea (Druryl)]. Briefly: Salt-marsh caterpillar leaf dip test. As to conditions: % by weight in solution, larvae, 48 hours plus 5 days if survivors. Here is the method: G. Salt-marsh Caterpillar [Estigmene acrea (Druryl)]
as §3, §1, §2

In data set [7] the test system is Black Bean Aphid [Aphis fabae (Scop.)]. Briefly: Direct spray assay on black bean aphid. To be noted: % by weight in acetone-water, mortality after 3 days. The method, then:
D. Direct Spray Assay on Black Bean Aphid [Aphis fabae (Scop.)]
A nasturtium plant (Tropaeolum sp.), approximately 5 cm tall, is transplanted into sandy loam soil in a 3-inch clay pot and infested with 25-50 black bean aphids of mixed ages. Twenty-four hours later the plant is sprayed, to the point of runoff, with a 50-50 acetone-water solution of the test chemical. The treated plant is held in the greenhouse and mortality is recorded after 3 days. The primary screening level for this test is 0.05% by weight of the test compound in the acetone-water solution.
as §1, §2

Data set [8] relates to Cabbage Looper [Trichoplusia ni (Hubner)]. Briefly: Cabbage looper leaf dip test. To be noted: % by weight in solution, larvae, 48 hours plus 5 days if survivors. The method, then: as §3
H. Cabbage Looper [Trichoplusia ni (Hubner)]
The procedure for cabbage looper larvae is the same as that used for salt-marsh caterpillar larvae, except that a cotyledon of hyzini squash (Calabacita abobrinha) of approximately the same size as the curly dock leaf section is used in place of the latter. The primary screening level for this test is 0.1% by weight of the test compound in the solution.
as §1, §2

Data set [9] relates to Two-Spotted Mite [Tetranychus urticae (Koch)]. Description: Two-spotted mite plant dip test. As to conditions: tested at primary screening level 0.05% only, < means more than 50% kill, > less than 50% kill, 7 days. The method, then:
J. Two-Spotted Mite [Tetranychus urticae (Koch)]
A pinto bean plant (Phaseolus sp.), approximately 10 cm tall is transplanted into sandy loam soil in a 3-inch clay pot and infested with two-spotted mites of mixed ages and sexes. Twenty-four hours later the infested plants are inverted and dipped for 2-3 seconds in a 50-50 acetone-water solution of the test compound. The treated plant is held in a greenhouse for 7 days. Mortality is then determined for both the adult mites and the nynmphs hatching from eggs which were on the plants at the time of treatment. The primary screening level for this test is 0.05% by weight of the test compound in the acetone-water solution.
as §1

Data set [10] concerns Housefly [Musca domestica (L.)]. Briefly: Housefly insecticide evaluation. To be noted: per 25 female houseflies; mortality after 48 hours. Here is the method: A. Housefly [Musca domestica (L.) ]
The test compound is diluted in acetone and an aliquot is pipetted onto the bottom of a 55 × 15 mm aluminum dish. To insure even spreading on the bottom of the dish, 1 ml of acetone containing 0.02% peanut oil is added. After all the solvent has evaporated, the dish is placed in a circular cardboard cage containing 25 1-day-old female houseflies. The cage is covered on the bottom with cellophane and the top with tulle netting, and contains a sugar-water saturated cotton plug for maintenance of the flies. Mortality is recorded after 48 hours. The primary screening level for this test is 100 micrograms of the test compound per 25 female houseflies.
as §1, §2

The subject of data set [11] is Green Peach Aphid [Myzus persicae (Sulzer)]. Description: Direct spray assay on green peach aphid. As to conditions: % by weight in acetone-water, mortality after 3 days. The method, then: E. Direct Spray Assay on Green Peach Aphid [Myzus persicae (Sulzer)]
A radish plant (Rhaphanus sativus), approximately 2 cm tall, is transplanted into sandy loam soil in a 3-inch clay pot and infested with 25-50 green peach aphids of mixed ages. Twenty-four hours later the plant is sprayed, to the point of runoff, with a 50-50 acetone-water solution of the test compound. The treated plant is held in a greenhouse and mortality is recorded after 3 days. The primary screening level for this test is 0.05% by weight of the test compound in the acetone-water solution.
as §1, §2

`CCOP(=S)(OCC)SCC(=O)Nc1csc(NC(=O)CSP(=S)(OCC)OCC)n1` [Compound 1]: in data set [1], the “Approximate LD50, LB (Lygus bug)” value is given as “> .05%”. Moreover, the “Approximate LD50, TBW (tobacco budworm)” value in data set [2] is “> .1%”. In data set [3], the “Approximate LD50, MOS (Southern house mosquito)” value (“Approximate LD50, MOS” for short) is given as “.8 ppm”. Besides, the “Approximate LD50, BAS (bean aphid systemic)” value (from here on “Approximate LD50, BAS”) in data set [4] was above 10 ppm. The “Approximate LD50, GR (German cockroach)” value in data set [5] is reported as “> .1%”. In addition, in data set [6], the “Approximate LD50, SMC (salt-marsh caterpillar)” value (from here on “Approximate LD50, SMC”) was “> .05%”. The “Approximate LD50, BBA (black bean aphid)” value in data set [7] is recorded as “.05%”. Also, in data set [8], the “Approximate LD50, CL (cabbage looper)” value is listed as “> .1%”. Besides, in [9], the “Approximate LD50, 2SM (two-spotted mite) (2) eggs” value (from here on “Approximate LD50, 2SM … (2) eggs”) is given as “< .05%” and the “Approximate LD50, 2SM (two-spotted mite) (1) post-embryonic” value (“Approximate LD50 … (1) post-embryonic” for short) is on record as “< .05%”. For the same molecule, in data set [10], the “Approximate LD50, HF (housefly)” value was above 100 µg.
Take `COP(=S)(OC)SCC(=O)Nc1csc(NC(=O)CSP(=S)(OC)OC)n1` [Compound 2, 2,4-Bis(O,O -dimethylphosphorodithioylacetamide)thiazole]: in data set [1], the “Approximate LD50, LB (Lygus bug)” value was “> .05%”. The “Approximate LD50, TBW (tobacco budworm)” value in data set [2] was “> .1%”. Also, the LC50 in [3] (read-out: Approximate LD50, MOS (Southern house mosquito)) is above 1 µg/mL. Moreover, in data set [4], the “Approximate LD50, BAS” value is above 10 ppm. In addition, the “Approximate LD50, GR (German cockroach)” value in data set [5] was “> .1%”. Also, the “Approximate LD50, SMC” value in data set [6] is “> .05%”. Besides, the “Approximate LD50, BBA (black bean aphid)” value in [7] was “.002%”. In data set [8], the “Approximate LD50, CL (cabbage looper)” value was “> .1%”. Further, in [9], the “Approximate LD50, 2SM … (2) eggs” value is given as “> .05%” and the “Approximate LD50 … (1) post-embryonic” value is “< .05%”. The “Approximate LD50, GPA (green peach aphid)” value (shortened to “Approximate LD50, GPA”) in data set [11] is “.03%”. For the same molecule, the “Approximate LD50, HF (housefly)” value in data set [10] was above 100 µg.
With `CCOP(=O)(OCC)SCC(=O)Nc1csc(NC(=O)CSP(=O)(OCC)OCC)n1` [Compound 8], in data set [1], the “Approximate LD50, LB (Lygus bug)” value was “> .05%”. Besides, the “Approximate LD50, TBW (tobacco budworm)” value in data set [2] was “> .1%”. In addition, in data set [3], the “Approximate LD50, MOS” value is recorded as above 1.0 ppm. Further, the “Approximate LD50, BAS” value in [4] was above 10 ppm. In addition, in data set [5], the “Approximate LD50, GR (German cockroach)” value is recorded as “> .1%”. Besides, in data set [6], the “Approximate LD50, SMC” value was “> .05%”. The “Approximate LD50, BBA (black bean aphid)” value in data set [7] was “.001%”. Moreover, the “Approximate LD50, CL (cabbage looper)” value in [8] is recorded as “> .1%”. Besides, in data set [9], the “Approximate LD50, 2SM … (2) eggs” value is recorded as “< .05%” and the “Approximate LD50 … (1) post-embryonic” value is listed as “< .05%”. In [11], the “Approximate LD50, GPA” value was “.03%”. Moreover, the “Approximate LD50, HF (housefly)” value in data set [10] was above 100 µg.
As to `COP(=S)(OC)SCC(=O)Nc1nc(NC(=O)CSP(=S)(OC)OC)c(-c2ccccc2)s1` [Compound 9], the “Approximate LD50, MOS” value in [3] is recorded as above 1.0 ppm. The “Approximate LD50, SMC” value in data set [6] is reported as “> .05%”. Moreover, the “Approximate LD50, BBA (black bean aphid)” value in [7] was “.2%”. Further, the “Approximate LD50, CL (cabbage looper)” value in [8] is “> .5%”. For the same molecule, in data set [9], the “Approximate LD50, 2SM … (2) eggs” value was “< .05%” and the “Approximate LD50 … (1) post-embryonic” value was “> .05%”. In addition, the “Approximate LD50, GPA” value in data set [11] was “.15%”. Moreover, in [10], the “Approximate LD50, HF (housefly)” value is above 100 µg.
